Source: publication PMC4965473 (Frontiers in Physiology, 2016)
Where a name gives a salt, the structure may show the parent alone.

Columns and labels:
[1] = test system: wt M2TMD21−49; set-up: species or system influenza A
[2] = test system: M2 transmembrane domain (M2TMD); settings: cited from earlier work

**Q.** What does the source list for `NC12CC3CC(CC(C3)C1)C2` [amantadine, amantadine hydrochloride]?
**A.** effect of longer incubation with amantadine on DEER data [1]: did not produce any additional effect on the DEER data; effect of amantadine on DEER distances ([1]; pH 5.5): do not change upon the addition of 2 mM amantadine; effect of amantadine on DEER signal / modulation depth ([1]; pH 5.5): almost negligible; binding affinity of amantadine versus pH [2]: Increased binding affinity of amantadine at neutral or basic pH, compared to acidic pH; effect of amantadine on M2TMD tetramer [2]: stabilizing effect of amantadine on M2TMD tetramer
